Data: patent US12643867B2, “Compositions and uses thereof” (University of Virginia Patent Foundation, priority 2017, dated 2026)

Experiments:
Format in all cases: binding
BRAF = target: T1, BRAF (Homo sapiens, UniProt P15056); assay: ATP acyl phosphate chemical proteomics in lung cancer cell proteomes
T1 construct: measure selectivity of compounds against native kinases detected in lung cancer proteomes; endogenous in cells; host or cells: A549 and H82 lung cancer cell proteomes
Protocol: (§1) LC-MS analysis of SILAC samples using ATP acyl phosphates. Quantitative chemoproteomics was performed as previously described (Franks et al., 2017; McCloud et al., 2018).
Computational Methods. Data for A549 and H82 cell lines were searched with IP2 and manually validated using the methods previously described (Franks et al., 2017). Data for Desthiobiotin-tagged ATP acyl-phosphate probes and ATP competitive peptides were compared and clustered. Ritanserin and ketanserin inhibition profiles were compared using SILAC ratios and normalized to DMSO.
Based on previous chemical proteomics (Franks, 2017), it was hypothesized that ritanserin is functioning as a kinase inhibitor to mediate cytotoxicity in the lung cancer cell models. […] For these studies, NSCLC and SCLC cells were cultured in isotopically light and heavy amino acids to enable quantitative chemical proteomics (Chang. 2015) by stable isotope labeling with amino acids in cell culture (SILAC, FIG. 17A). […] After probe labeling, light and heavy proteomes were combined, digested with trypsin protease, and desthiobiotin-modified peptides enriched by avidin affinity chromatography and analyzed by LC-MS/MS to identify and quantify isotopically tagged active-site peptides from native kinases as previously described(Franks, 2017) (FIG. 17A).
(§2) To further confirm that ritanserin is a CRAF inhibitor, a targeted parallel reaction monitoring method (PRM) was developed to evaluate compound activity against CRAF and other members of the RAF family (ARAF and BRAF). Targeted PRM was needed because of the low abundance of CRAF compared with ARAF and BRAF). […] Ritanserin activity was also measured against RAF kinases in A549 proteomes using the targeted LC-MS method. […] The data further support previous findings that this RAF member is enriched in SCLC cells (REF).

ARAF = target: T2, ARAF (Homo sapiens, UniProt P10398); assay: ATP acyl phosphate chemical proteomics in lung cancer cell proteomes (targeted PRM); settings: H82 proteomes
T2 construct: measure selectivity of compounds against native kinases detected in lung cancer proteomes; endogenous in cells; host or cells: H82 (and A549) cell proteomes
T2 sequence (P10398 whole entry): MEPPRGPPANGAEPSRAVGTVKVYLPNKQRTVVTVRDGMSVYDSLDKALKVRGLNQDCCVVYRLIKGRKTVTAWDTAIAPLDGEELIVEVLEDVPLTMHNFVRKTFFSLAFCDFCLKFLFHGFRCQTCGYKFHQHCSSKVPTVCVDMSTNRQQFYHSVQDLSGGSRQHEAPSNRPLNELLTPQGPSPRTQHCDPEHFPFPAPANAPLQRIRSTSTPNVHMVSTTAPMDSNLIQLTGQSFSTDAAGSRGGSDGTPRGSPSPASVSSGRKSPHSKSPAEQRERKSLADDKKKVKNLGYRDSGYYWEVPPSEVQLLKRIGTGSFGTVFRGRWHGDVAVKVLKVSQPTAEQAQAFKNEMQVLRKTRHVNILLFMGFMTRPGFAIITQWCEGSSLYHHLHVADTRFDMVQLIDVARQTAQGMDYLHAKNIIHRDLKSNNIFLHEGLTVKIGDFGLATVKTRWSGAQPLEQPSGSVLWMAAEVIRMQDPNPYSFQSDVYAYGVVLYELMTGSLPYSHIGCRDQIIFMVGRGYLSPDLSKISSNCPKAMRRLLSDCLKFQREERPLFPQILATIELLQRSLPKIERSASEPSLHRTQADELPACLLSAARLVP
Protocol: as §1, §2

[1] = target: T3, hDGKa C1 domain cysteines (Homo sapiens, UniProt P23743); assay: JWB003 labeling competition in vitro
T3 construct: expressed in transfected cells; host or cells: HEK293T
T3 sequence (P23743 whole entry, the tested form may be a part): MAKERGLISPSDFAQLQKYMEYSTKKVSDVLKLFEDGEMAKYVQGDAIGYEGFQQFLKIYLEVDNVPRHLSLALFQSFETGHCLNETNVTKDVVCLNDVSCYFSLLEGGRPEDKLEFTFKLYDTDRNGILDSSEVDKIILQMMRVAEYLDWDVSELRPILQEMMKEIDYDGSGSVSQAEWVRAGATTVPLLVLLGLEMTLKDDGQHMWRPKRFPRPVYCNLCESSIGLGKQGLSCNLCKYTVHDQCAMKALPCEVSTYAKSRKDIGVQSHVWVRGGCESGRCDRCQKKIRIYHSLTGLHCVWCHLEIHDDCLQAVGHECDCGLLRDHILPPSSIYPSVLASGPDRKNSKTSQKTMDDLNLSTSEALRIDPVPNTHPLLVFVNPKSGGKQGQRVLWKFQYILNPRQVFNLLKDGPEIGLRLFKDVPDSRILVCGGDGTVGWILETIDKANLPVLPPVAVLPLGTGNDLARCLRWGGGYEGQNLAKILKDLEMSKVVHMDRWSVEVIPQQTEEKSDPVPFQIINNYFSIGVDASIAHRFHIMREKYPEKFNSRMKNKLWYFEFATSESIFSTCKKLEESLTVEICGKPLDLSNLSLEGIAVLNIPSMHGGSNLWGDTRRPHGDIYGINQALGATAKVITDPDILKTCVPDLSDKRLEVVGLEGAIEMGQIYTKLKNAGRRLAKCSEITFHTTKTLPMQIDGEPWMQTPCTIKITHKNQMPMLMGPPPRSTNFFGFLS
Protocol: • 1. HEK293T cells were harvested in cold PBS. • a. Cells were transferred to Eppendorf tube. • 2. Cells were lysed via tip sonicator. • 3. Cells were fractionated into membrane and soluble fraction. • a. 100,000×G for 45 minutes at 4 degree. • b. Supernatant was separated from cell pellet. • 4. Dilute proteomes to 1 mg/mL in PBS and aliquot appropriate reaction volume (49 μL for probe only; 48 μL for competition+probe) • 5. Cells were treated with 50× inhibitor. • a. Incubated for 1Hr at 37 degree. • 6. Cells were treated with 50× Probe (JWB003). • a. Incubated for 1Hr at 37 degree. • 7. Add 6 μL of master mix to each alkyne probe-labeled sample. • a. 1 μL of 1.25 mM Rh-N3 • b. 1 μL of fresh 50 mM TCEP • c. 3 μL of 1.7 mM TBTA stock • d. 1 μL of 50 mM CuSO4 • 8. Vortex samples. • 9. Incubate at room temperature for 1 hr • 10. Quench with 17 μL of 4×SDS-PAGE loading buffer+βME and vortex tubes. • 11. Analyze 30 μL samples by SDS-PAGE immediately. [B] Labeling HEK293T Cells to Determine Target Proteins of JWB003 in Live Cells (In Situ) • 1. Complete media was removed from HEK293T cells and replaced with serum free media containing JWB003 at the appropriate final concentration • a. Cells were placed in incubator for appropriate time at 37 degree 5% CO2 • 2. Cells were washed • a. 2× warm PBS • b. 2× cold PBS • c. Harvest cells in cold PBS • 3. Cells were transferred to Eppendorf tube • 4. Cells were lysed via tip sonicator • 5. Cells were fractionated into membrane and soluble fraction • a. 100,000×G for 45 minutes at 4 degrees • b. Supernatant was separated from cell pellet. • 6. Dilute proteomes to 1 mg/mL and aliquot appropriate reaction volume (50 μL) • 7. Add 6 μL of master mix to each alkyne probe-labeled sample. • a. 1 μL of 1.25 mM Rh-N3 • b. 1 μL of fresh 50 mM TCEP • c. 3 μL of 1.7 mM TBTA stock • d. 1 μL of 50 mM CuSO4 • 8. Vortex samples. • 9. Incubate at room temperature for 1 hr. • 10. Quench with 17 μL of 4×SDS-PAGE loading buffer+βME and vortex tubes. • 11. Analyze 30 μL samples by SDS-PAGE immediately. [C] […]

T1 sequence (P15056 whole entry): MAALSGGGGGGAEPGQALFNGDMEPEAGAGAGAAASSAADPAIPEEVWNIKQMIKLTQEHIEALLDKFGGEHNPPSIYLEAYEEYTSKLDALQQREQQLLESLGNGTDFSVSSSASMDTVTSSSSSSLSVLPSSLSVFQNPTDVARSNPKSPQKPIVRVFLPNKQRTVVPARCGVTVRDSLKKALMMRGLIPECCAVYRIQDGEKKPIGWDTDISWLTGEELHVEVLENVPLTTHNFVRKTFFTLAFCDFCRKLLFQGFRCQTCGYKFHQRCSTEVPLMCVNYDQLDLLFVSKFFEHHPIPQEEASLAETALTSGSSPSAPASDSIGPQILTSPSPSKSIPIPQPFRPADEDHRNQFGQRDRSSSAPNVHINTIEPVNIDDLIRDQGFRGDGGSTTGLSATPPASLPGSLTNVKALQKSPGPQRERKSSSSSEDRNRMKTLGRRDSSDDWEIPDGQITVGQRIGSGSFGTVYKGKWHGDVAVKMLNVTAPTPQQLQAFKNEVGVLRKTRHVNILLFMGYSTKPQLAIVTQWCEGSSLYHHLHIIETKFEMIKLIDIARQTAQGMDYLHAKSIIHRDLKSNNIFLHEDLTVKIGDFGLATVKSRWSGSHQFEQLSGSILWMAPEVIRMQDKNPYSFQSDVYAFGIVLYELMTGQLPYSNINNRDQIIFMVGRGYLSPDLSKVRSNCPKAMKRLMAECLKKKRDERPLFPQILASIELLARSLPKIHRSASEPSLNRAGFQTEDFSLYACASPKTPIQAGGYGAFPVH

Compound: Cc1nc2sccn2c(=O)c1CCN1CCC(=C(c2ccc(F)cc2)c2ccc(F)cc2)CC1 [Ritanserin]
- inhibition by three-fold change cutoff (BRAF; 100 μM, A549 and H82 proteomes): BRAF inhibition
- activity by targeted PRM (BRAF; H82 proteomes): negligible activity
- activity by targeted PRM (ARAF): negligible activity
- inhibition of JWB003 probe labeling of hDGKa [1]: Probe labeling is inhibited
